Measurements: PubChem BioAssay AID248 (DTP/NCI, 2004)
Values joined by “and” are separate entries in the source; they are usually repeats but may differ in a detail not shown here. Identical values can stand only once. Inconclusive results and toxic doses are left out. No stated cut-off is given here; in the data, active means T/C of 150% or more; inactive means T/C below 125%.

System: L1210 leukemia ip in BDF1 mice, survival T/C
Assay: NCI In Vivo Anticancer Drug Screen. Data for tumor model L1210 Leukemia (intraperitoneal) in B6D2F1 (BDF1) mice
Conditions: endpoint: mean survival time, higher = longer survival
Method in brief: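 Antitumor effect is assessed in tumor-bearing animals. Survival in the compound arm is compared with a vehicle-dosed control arm and expressed as their quotient.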

[1] = dose: 100.0 mg/kg/injection, schedule: Q01DX001 (ip), vehicle: carboxymethylcellulose (CMC)
[2] = dose: 200.0 mg/kg/injection, schedule: Q01DX001 (ip), vehicle: carboxymethylcellulose (CMC)
[3] = dose: 400.0 mg/kg/injection, schedule: Q01DX001 (ip), vehicle: carboxymethylcellulose (CMC)
[4] = dose: 100.0 mg/kg/injection, schedule: Q01DX001 (ip), vehicle: saline
[5] = dose: 100.0 mg/kg/injection, schedule: Q04DX003 (ip), vehicle: saline
[6] = dose: 200.0 mg/kg/injection, schedule: Q01DX001 (ip), vehicle: saline
[7] = dose: 200.0 mg/kg/injection, schedule: Q04DX003 (ip), vehicle: saline
[8] = dose: 400.0 mg/kg/injection, schedule: Q01DX001 (ip), vehicle: saline
[9] = dose: 400.0 mg/kg/injection, schedule: Q04DX003 (ip), vehicle: saline
[10] = dose: 100.0 mg/kg/injection, schedule: Q04DX003 (ip), vehicle: saline with Tween-80
[11] = dose: 200.0 mg/kg/injection, schedule: Q04DX003 (ip), vehicle: saline with Tween-80

Measured: T/C

COc1ccc2c(c1)CC/C(=C\c1cccnc1)C2=O
inactive: dose: 100.0 mg/kg/injection, schedule: Q04DX003 (ip), vehicle: carboxymethylcellulose (CMC) 110 % of control | dose: 200.0 mg/kg/injection, schedule: Q04DX003 (ip), vehicle: carboxymethylcellulose (CMC) 96 % of control | dose: 400.0 mg/kg/injection, schedule: Q04DX003 (ip), vehicle: carboxymethylcellulose (CMC) 94 % of control

FC(F)(F)c1ccc(C=C2c3ccccc3-c3ccccc32)cc1
inactive: dose: 12.5 mg/kg/injection, schedule: Q04DX002 (ip), vehicle: Klucel (hydroxypropylcellulose) (HPC) 92 % of control | dose: 25.0 mg/kg/injection, schedule: Q04DX002 (ip), vehicle: Klucel (hydroxypropylcellulose) (HPC) 92 % of control | dose: 50.0 mg/kg/injection, schedule: Q04DX002 (ip), vehicle: Klucel (hydroxypropylcellulose) (HPC) 92 % of control

CCC(Cl)COP(=O)(CC(Cl)CC)O/C(C)=C(\C)OP(=O)(OCC(Cl)CC)OCC(Cl)CC (stereo unspecified)
inactive: dose: 25.0 mg/kg/injection, schedule: Q04DX002 (sc), vehicle: olive oil, sesame oil, peanut oil 104 % of control | dose: 50.0 mg/kg/injection, schedule: Q04DX002 (sc), vehicle: olive oil, sesame oil, peanut oil 93 % of control | dose: 100.0 mg/kg/injection, schedule: Q04DX002 (sc), vehicle: olive oil, sesame oil, peanut oil 107 % of control

O=C(O)C(CSSCC(NS(=O)(=O)Cc1ccccc1)C(=O)O)NS(=O)(=O)Cc1ccccc1 (stereo unspecified)
inactive: dose: 100.0 mg/kg/injection, schedule: Q04DX003 (ip), vehicle: other 97 % of control | dose: 200.0 mg/kg/injection, schedule: Q04DX003 (ip), vehicle: other 92 % of control | dose: 400.0 mg/kg/injection, schedule: Q04DX003 (ip), vehicle: other 93 % of control

C=CC(O)c1ccccc1 (stereo unspecified)
inactive: dose: 75.0 mg/kg/injection, schedule: Q01DX009 (ip), vehicle: saline with Tween-80 90 % of control | dose: 75.0 mg/kg/injection, schedule: Q04DX003 (ip), vehicle: saline with Tween-80 89 % of control | dose: 150.0 mg/kg/injection, schedule: Q01DX009 (ip), vehicle: saline with Tween-80 87 % of control | dose: 150.0 mg/kg/injection, schedule: Q04DX003 (ip), vehicle: saline with Tween-80 109 % of control | dose: 300.0 mg/kg/injection, schedule: Q01DX009 (ip), vehicle: saline with Tween-80 88 % of control | dose: 300.0 mg/kg/injection, schedule: Q04DX003 (ip), vehicle: saline with Tween-80 105 % of control

COc1ccc(O)c2c1C(=O)c1ccccc1C2=O
inactive: dose: 25.0 mg/kg/injection, schedule: Q01DX009 (ip), vehicle: other 93 % of control | dose: 50.0 mg/kg/injection, schedule: Q01DX009 (ip), vehicle: other 95 % of control | dose: 100.0 mg/kg/injection, schedule: Q01DX009 (ip), vehicle: other 104 % of control | dose: 200.0 mg/kg/injection, schedule: Q01DX009 (ip), vehicle: other 102 % of control | dose: 400.0 mg/kg/injection, schedule: Q01DX009 (ip), vehicle: other 104 % of control

CCNC(=O)CC#N
inactive: [1] 102 % of control | [2] 91 % of control | [3] 108 % of control

O=C(N/N=C/C=C/c1ccccc1)[C@H](O)[C@@H](O)C(=O)N/N=C/C=C/c1ccccc1
inactive: [4] 92 % of control | dose: 100.0 mg/kg/injection, schedule: Q01DX009 (ip), vehicle: acetone 90 % of control | [5] 88 % of control | [6] 93 % of control | [7] 88 % of control | [8] 93 % of control | dose: 400.0 mg/kg/injection, schedule: Q01DX009 (ip), vehicle: acetone 92 % of control | [9] 97 % of control

BrC1C2C=CCC1CC2 (stereo unspecified)
inactive: dose: 100.0 mg/kg/injection, schedule: Q01DX009 (ip), vehicle: saline 91 % of control | [5] 96 % of control | dose: 200.0 mg/kg/injection, schedule: Q01DX009 (ip), vehicle: saline 97 % of control | [7] 96 % of control | dose: 400.0 mg/kg/injection, schedule: Q01DX009 (ip), vehicle: saline 94 % of control | [9] 94 % of control

COc1cc([C@@H]2c3cc4c(cc3[C@H](O)[C@H]3COC(=O)[C@H]23)OCO4)cc(OC)c1OC
inactive: dose: 0.14 mg/kg/injection, schedule: Q01DX Z (ip), vehicle: carboxymethylcellulose (CMC) 95 % of control | dose: 0.27 mg/kg/injection, schedule: Q01DX Z (ip), vehicle: carboxymethylcellulose (CMC) 101 % of control | dose: 0.54 mg/kg/injection, schedule: Q01DX Z (ip), vehicle: carboxymethylcellulose (CMC) 108 % of control | dose: 1.08 mg/kg/injection, schedule: Q01DX Z (ip), vehicle: carboxymethylcellulose (CMC) 105 % of control and 120 % of control | dose: 1.62 mg/kg/injection, schedule: Q01DX Z (ip), vehicle: carboxymethylcellulose (CMC) 110 % of control | dose: 2.16 mg/kg/injection, schedule: Q01DX Z (ip), vehicle: carboxymethylcellulose (CMC) 95 % of control | dose: 15.0 mg/kg/injection, schedule: Q01DX001 (ip), vehicle: carboxymethylcellulose (CMC) 117 % of control | dose: 30.0 mg/kg/injection, schedule: Q01DX001 (ip), vehicle: carboxymethylcellulose (CMC) 111 % of control | dose: 60.0 mg/kg/injection, schedule: Q01DX001 (ip), vehicle: carboxymethylcellulose (CMC) 88 % of control

Fc1cccc(CSc2ncnc3nc[nH]c23)c1
inactive: dose: 12.5 mg/kg/injection, schedule: Q01DX009 (ip), vehicle: saline 104 % of control | dose: 25.0 mg/kg/injection, schedule: Q01DX009 (ip), vehicle: saline 119 % of control | dose: 50.0 mg/kg/injection, schedule: Q01DX009 (ip), vehicle: saline 120 % of control | dose: 175.0 mg/kg/injection, schedule: Q01DX001 (ip), vehicle: saline 105 % of control and 116 % of control | dose: 265.0 mg/kg/injection, schedule: Q01DX001 (ip), vehicle: saline 115 % of control | [8] 119 % of control

CCC/C=C(\C)C#CC1=CCCCC1
inactive: dose: 50.0 mg/kg/injection, schedule: Q01DX001 (ip), vehicle: carboxymethylcellulose (CMC) 97 % of control | [1] 100 % of control | [2] 94 % of control | [3] 97 % of control

O=c1nc(NO)c(Br)cn1C1CCCCO1 (stereo unspecified)
inactive: [1] 96 % of control | [2] 96 % of control | [3] 96 % of control

CC(C)c1cccc(O)c(=O)c1
inactive: [10] 95 % of control | [11] 103 % of control

N#Cc1ccccc1C(=O)O
inactive: [4] 95 % of control | [6] 102 % of control | [8] 96 % of control

O=C(C[n+]1cccc(Cl)c1)c1ccccc1
inactive: dose: 0.5 mg/kg/injection, schedule: Q04DX003 (ip), vehicle: saline 113 % of control | dose: 1.0 mg/kg/injection, schedule: Q04DX003 (ip), vehicle: saline 105 % of control | dose: 2.0 mg/kg/injection, schedule: Q04DX003 (ip), vehicle: saline 102 % of control

C=C(C)C(=O)OCC1COc2c(cc(O)c(C)c2C)C1 (stereo unspecified)
inactive: [10] 107 % of control | [11] 98 % of control | dose: 400.0 mg/kg/injection, schedule: Q04DX003 (ip), vehicle: saline with Tween-80 98 % of control

CCOC(=O)c1ccc(NP(=O)(Nc2ccc(C(=O)OCC)cc2)c2ccc([N+](=O)[O-])cc2)cc1
inactive: dose: 100.0 mg/kg/injection, schedule: Q04DX003 (ip), vehicle: acetone 87 % of control | dose: 200.0 mg/kg/injection, schedule: Q04DX003 (ip), vehicle: acetone 95 % of control | dose: 400.0 mg/kg/injection, schedule: Q04DX003 (ip), vehicle: acetone 95 % of control
